Measurements published in patent US20260224589A1 (priority 2023, published 2026).

tested on: AsPC-1 cells; assay: phospho-ERK HTRF assay in AsPC-1 cells, 4 h treatment; type: cell-based; details: Homo sapiens, ASPC1; AsPC-1, 4H; Table 1a class column; read-out: pERK IC50 activity range (*)

| SMILES | IC50 |
| --- | --- |
| CN(C)C(=O)c1nn2c(c1Cl)CN(c1nc(OC[C@@]34CCCN3C[C@H](F)C4)nc3c1COC(c1cc(N)cc(F)c1C(F)(F)F)C3)CCC2 (stereo partly shown) [compound 237] | 10 to 30 nM |
| CN(C)C(=O)c1nn2c(c1Cl)CN(c1nc(OC[C@@]34CCCN3CC(=C(F)F)C4)nc3c1COC(c1cc(N)cc(F)c1C(F)(F)F)C3)CCC2 (stereo partly shown) [compound 238] | 10 to 30 nM |
| Cc1cc(N)cc(C2Cc3nc(OC[C@@]45CCCN4C[C@H](F)C5)nc(N4CCCn5nc(C(=O)N(C)C)c(Cl)c5C4)c3CO2)c1C(F)(F)F (stereo partly shown) [compound 239] | 10 to 30 nM |
| Cc1cc(N)cc(C2Cc3nc(OC[C@@]45CCCN4CC(=C(F)F)C5)nc(N4CCCn5nc(C(=O)N(C)C)c(Cl)c5C4)c3CO2)c1C(F)(F)F (stereo partly shown) [compound 241] | 31 to 100 nM |
| CN(C)C(=O)c1nn2c(c1Cl)CN(c1nc(OC[C@@]34CCCN3C/C(=C\F)C4)nc3c1CO[C@H](c1cc(N)ccc1C(F)(F)F)C3)CCC2 [compound 243] | 10 to 30 nM |
| CN(C)C(=O)c1nn2c(c1Cl)CN(c1nc(OC[C@@]34CCCN3CC(=C(F)F)C4)nc3c1CO[C@H](c1cc(N)ccc1C(F)(F)F)C3)CCC2 [compound 244] | 10 to 30 nM |
| CN(C)C(=O)c1nn2c(c1Cl)CN(c1nc(OC[C@@]34CCCN3C/C(=C\F)C4)nc3c1COC(c1cc(N)cc(F)c1C(F)(F)F)C3)CCC2 (stereo partly shown) [compound 246] | 10 to 30 nM |
| COc1c(C(=O)N(C)C)nn2c1CN(c1nc(OC[C@@]34CCCN3C[C@H](F)C4)nc3c1COC(c1c(F)c(N)cc(Cl)c1C(F)(F)F)C3)CCC2 (stereo partly shown) [compound 249] | 101 to 500 nM |
| CN(C)C(=O)c1nn2c(c1Cl)CN(c1nc(OC[C@@]34CCCN3C[C@H](F)C4)nc3c1CO[C@H](c1cc(N)cc(F)c1C(F)(F)F)C3)CCC2 [compound 402] | 10 to 30 nM |
| Cc1cc(N)cc([C@@H]2Cc3nc(OC[C@@]45CCCN4C/C(=C\F)C5)nc(N4CCCn5nc(C(=O)N6CCC6)cc5C4)c3CO2)c1C(F)(F)F [compound 403] | 10 to 30 nM |
| Cc1cc(N)cc([C@@H]2Cc3nc(OC[C@@]45CCCN4C/C(=C\F)C5)nc(N4CCCn5nc(C(=O)N6CCCC6)cc5C4)c3CO2)c1C(F)(F)F [compound 404] | 10 to 30 nM |
| Cc1cc(N)cc([C@@H]2Cc3nc(OC[C@@]45CCCN4C[C@H](F)C5)nc(N4CCCn5nc(C(=O)N(C)C)c(C)c5C4)c3CO2)c1C(F)(F)F [compound 405] | 10 to 30 nM |
| Cc1c(C(=O)N(C)C)nn2c1CN(c1nc(OC[C@@]34CCCN3CC(=C(F)F)C4)nc3c1CO[C@H](c1cc(N)cc(F)c1C(F)(F)F)C3)CCC2 [compound 407] | 10 to 30 nM |
| CC#Cc1cc(N)cc([C@@H]2Cc3nc(OC[C@@]45CCCN4C[C@H](F)C5)nc(N4CCCn5nc(C(=O)N(C)C)cc5C4)c3CO2)c1C(F)(F)F [compound 408] | 10 to 30 nM |
| CCc1c(C(=O)N(C)C)nn2c1CN(c1nc(OC[C@@]34CCCN3C[C@H](F)C4)nc3c1CO[C@H](c1cc(N)cc(Cl)c1C(F)(F)F)C3)CCC2 [compound 409] | 10 to 30 nM |

same assay, conditions: Homo sapiens, ASPC1; AsPC-1, 4H; Table 1a; read-out: PERK IC50 (AsPC-1, 4H)

| SMILES | IC50 |
| --- | --- |
| CN(C)C(=O)c1nn2c(c1Cl)CN(c1nc(OC[C@@]34CCCN3C[C@H](F)C4)nc3c1COC(c1cc(N)cc(F)c1C(F)(F)F)C3)CCC2 (stereo partly shown) [compound 237] | 20.4 nM |
| CN(C)C(=O)c1nn2c(c1Cl)CN(c1nc(OC[C@@]34CCCN3CC(=C(F)F)C4)nc3c1COC(c1cc(N)cc(F)c1C(F)(F)F)C3)CCC2 (stereo partly shown) [compound 238] | 29.3 nM |
| Cc1cc(N)cc(C2Cc3nc(OC[C@@]45CCCN4C[C@H](F)C5)nc(N4CCCn5nc(C(=O)N(C)C)c(Cl)c5C4)c3CO2)c1C(F)(F)F (stereo partly shown) [compound 239] | 12.8 nM |
| Cc1cc(N)cc(C2Cc3nc(OC[C@@]45CCCN4CC(=C(F)F)C5)nc(N4CCCn5nc(C(=O)N(C)C)c(Cl)c5C4)c3CO2)c1C(F)(F)F (stereo partly shown) [compound 241] | 58.9 nM |
| CN(C)C(=O)c1nn2c(c1Cl)CN(c1nc(OC[C@@]34CCCN3C/C(=C\F)C4)nc3c1CO[C@H](c1cc(N)ccc1C(F)(F)F)C3)CCC2 [compound 243] | 10.7 nM |
| CN(C)C(=O)c1nn2c(c1Cl)CN(c1nc(OC[C@@]34CCCN3CC(=C(F)F)C4)nc3c1CO[C@H](c1cc(N)ccc1C(F)(F)F)C3)CCC2 [compound 244] | 22.2 nM |
| CN(C)C(=O)c1nn2c(c1Cl)CN(c1nc(OC[C@@]34CCCN3C/C(=C\F)C4)nc3c1COC(c1cc(N)cc(F)c1C(F)(F)F)C3)CCC2 (stereo partly shown) [compound 246] | 15.9 nM |
| COc1c(C(=O)N(C)C)nn2c1CN(c1nc(OC[C@@]34CCCN3C[C@H](F)C4)nc3c1COC(c1c(F)c(N)cc(Cl)c1C(F)(F)F)C3)CCC2 (stereo partly shown) [compound 249] | 113 nM |

same assay, conditions: Homo sapiens, ASPC1; AsPC-1, 4h; Table 1b; read-out: PERK IC50 (AsPC-1, 4h)

| SMILES | IC50 |
| --- | --- |
| Cc1cc(N)cc(C2Cc3nc(OC[C@@]45CCCN4C/C(=C\F)C5)nc(N4CCCn5nc(C(=O)N(C)C)c(Cl)c5C4)c3CO2)c1C(F)(F)F (stereo partly shown) [compound 240] | < 10 nM |
| CN(C)C(=O)c1nn2c(c1Cl)CN(c1nc(OC[C@@]34CCCN3C/C(=C\F)C4)nc3c1COC(c1cc(N)cc(Cl)c1C(F)(F)F)C3)CCC2 (stereo partly shown) [compound 242] | < 10 nM |
| CN(C)C(=O)c1nn2c(c1Cl)CN(c1nc(OC[C@@]34CCCN3CC(=C(F)F)C4)nc3c1COC(c1cc(N)cc(Cl)c1C(F)(F)F)C3)CCC2 (stereo partly shown) [compound 245] | < 10 nM |
| Cc1c(C(=O)N(C)C)nn2c1CN(c1nc(OC[C@@]34CCCN3C/C(=C\F)C4)nc3c1CO[C@H](c1cc(N)cc(Cl)c1C(F)(F)F)C3)CCC2 [compound 300, 5-((S)-7-(5-amino-3-chloro-2-(trifluoromethyl)phenyl)-2-(((S,Z)-2-(fluoromethylene)tetrahydro-1H-pyrrolizin-7a(5H)-yl)methoxy)-7,8-dihydro-5H-pyrano[4,3-d]pyrimidin-4-yl)-N,N,3-trimethyl-5,6,7,8-tetrahydro-4H-pyrazolo[1,5-a][1,4]diazepine-2-carboxamide] | < 10 nM |
| CN(C)C(=O)c1cc2n(n1)CCCN(c1nc(OC[C@@]34CCCN3C/C(=C\F)C4)nc3c1CO[C@H](c1cc(N)cc(Cl)c1C(F)(F)F)C3)C2 [compound 301, 5-((S)-7-(5-amino-3-chloro-2-(trifluoromethyl)phenyl)-2-(((S,Z)-2-(fluoromethylene)tetrahydro-1H-pyrrolizin-7a(5H)-yl)methoxy)-7,8-dihydro-5H-pyrano[4,3-d]pyrimidin-4-yl)-N,N-dimethyl-5,6,7,8-tetrahydro-4H-pyrazolo[1,5-a][1,4]diazepine-2-carboxamide] | < 10 nM |
| Cc1cc(N)cc([C@@H]2Cc3nc(OC[C@@]45CCCN4C/C(=C\F)C5)nc(N4CCCn5nc(C(=O)N(C)C)cc5C4)c3CO2)c1C(F)(F)F [compound 302, 5-((S)-7-(5-amino-3-methyl-2-(trifluoromethyl)phenyl)-2-(((S,Z)-2-(fluoromethylene)tetrahydro-1H-pyrrolizin-7a(5H)-yl)methoxy)-7,8-dihydro-5H-pyrano[4,3-d]pyrimidin-4-yl)-N,N-dimethyl-5,6,7,8-tetrahydro-4H-pyrazolo[1,5-a][1,4]diazepine-2-carboxamide] | < 10 nM |
| CN(C)C(=O)c1nn2c(c1Cl)CN(c1nc(OC[C@@]34CCCN3C/C(=C\F)C4)nc3c1CO[C@H](c1cc(N)cc(F)c1C(F)(F)F)C3)CCC2 [compound 410] | < 10 nM |
| CN(C)C(=O)c1cc2n(n1)CCCN(c1nc(OC[C@@]34CCCN3CC(=C(F)F)C4)nc3c1CO[C@H](c1cc(N)cc(Cl)c1C(F)(F)F)C3)C2 [compound 411] | < 10 nM |
| CN(C)C(=O)c1nn2c(c1F)CN(c1nc(OC[C@@]34CCCN3C/C(=C\F)C4)nc3c1CO[C@H](c1cc(N)cc(Cl)c1C(F)(F)F)C3)CCC2 [compound 412] | < 10 nM |
| CCN(C)C(=O)c1cc2n(n1)CCCN(c1nc(OC[C@@]34CCCN3C/C(=C\F)C4)nc3c1CO[C@H](c1cc(N)cc(C)c1C(F)(F)F)C3)C2 [compound 413] | < 10 nM |
| Cc1c(C(=O)N(C)C)nn2c1CN(c1nc(OC[C@@]34CCCN3C[C@H](F)C4)nc3c1CO[C@H](c1cc(N)cc(Cl)c1C(F)(F)F)C3)CCC2 [compound 414] | < 10 nM |
| Cc1cc(N)cc([C@@H]2Cc3nc(OC[C@@]45CCCN4C/C(=C\F)C5)nc(N4CCCn5nc(C(=O)N(C)C)c(C)c5C4)c3CO2)c1C(F)(F)F [compound 415] | < 10 nM |
| Cc1cc(N)cc([C@@H]2Cc3nc(OC[C@@]45CCCN4CC(=C(F)F)C5)nc(N4CCCn5nc(C(=O)N(C)C)c(C)c5C4)c3CO2)c1C(F)(F)F [compound 416] | < 10 nM |
| Cc1c(C(=O)N(C)C)nn2c1CN(c1nc(OC[C@@]34CCCN3C/C(=C\F)C4)nc3c1CO[C@H](c1cc(N)cc(F)c1C(F)(F)F)C3)CCC2 [compound 417] | < 10 nM |
| CC#Cc1cc(N)cc([C@@H]2Cc3nc(OC[C@@]45CCCN4C[C@H](F)C5)nc(N4CCCn5nc(C(=O)N(C)C)c(C)c5C4)c3CO2)c1C(F)(F)F [compound 419] | < 10 nM |
| CC#Cc1cc(N)cc([C@@H]2Cc3nc(OC[C@@]45CCCN4C/C(=C\F)C5)nc(N4CCCn5nc(C(=O)N6CCCC6)cc5C4)c3CO2)c1C(F)(F)F [compound 420] | < 10 nM |
| Cc1c(C(=O)N2CCCC2)nn2c1CN(c1nc(OC[C@@]34CCCN3C/C(=C\F)C4)nc3c1CO[C@H](c1cc(N)cc(Cl)c1C(F)(F)F)C3)CCC2 [compound 421] | < 10 nM |
| Nc1cc(Cl)c(C(F)(F)F)c([C@@H]2Cc3nc(OC[C@@]45CCCN4C/C(=C\F)C5)nc(N4CCCn5nc(C(=O)N6CCCC6)c(Cl)c5C4)c3CO2)c1 [compound 422] | < 10 nM |
| CC#Cc1cc(N)cc([C@@H]2Cc3nc(OC[C@@]45CCCN4C[C@H](F)C5)nc(N4CCCn5nc(C(=O)N(C)C)c(CC)c5C4)c3CO2)c1C(F)(F)F [compound 423] | < 10 nM |
| CC#Cc1cc(N)cc([C@@H]2Cc3nc(OC[C@@]45CCCN4C/C(=C\F)C5)nc(N4CCCn5nc(C(=O)N(C)C)c(CC)c5C4)c3CO2)c1C(F)(F)F [compound 424] | < 10 nM |
| CCc1c(C(=O)N(C)C)nn2c1CN(c1nc(OC[C@@]34CCCN3C/C(=C\F)C4)nc3c1CO[C@H](c1cc(N)cc(Cl)c1C(F)(F)F)C3)CCC2 [compound 425] | < 10 nM |
| CC#Cc1cc(N)cc([C@@H]2Cc3nc(OC[C@@]45CCCN4C/C(=C\F)C5)nc(N4CCCn5nc(C(=O)N(C)C)c(C)c5C4)c3CO2)c1C(F)(F)F [compound 426] | < 10 nM |
| CC#Cc1cc(N)cc([C@@H]2Cc3nc(OC[C@@]45CCCN4C/C(=C\F)C5)nc(N4CCCn5nc(C(=O)N(C)C)c(Cl)c5C4)c3CO2)c1C(F)(F)F [compound 427] | < 10 nM |
| CC#Cc1cc(N)cc([C@@H]2Cc3nc(OC[C@@]45CCCN4C/C(=C\F)C5)nc(N4CCCn5nc(C(=O)N(C)CC)cc5C4)c3CO2)c1C(F)(F)F [compound 428] | < 10 nM |
| CC#Cc1cc(N)cc([C@@H]2Cc3nc(OC[C@@]45CCCN4C/C(=C\F)C5)nc(N4CCCn5nc(C(=O)N6CCCC6)c(C)c5C4)c3CO2)c1C(F)(F)F [compound 429] | < 10 nM |
| CC#Cc1cc(N)cc([C@@H]2Cc3nc(OC[C@@]45CCCN4C/C(=C\F)C5)nc(N4CCCn5nc(C(=O)N6CCCC6)c(Cl)c5C4)c3CO2)c1C(F)(F)F [compound 430] | < 10 nM |
